The values that follow come from US20100222548A1, “METHOD FOR PRODUCING CONDENSATION PRODUCTS FROM N-SUBSTITUTED GLYCINE DERIVATIVES(PEPTOIDS) BY SEQUENTIAL UGI-MULTICOMPONENT REACTIONS” (priority 2006, published 2010).

For this assay, the system named is Vibrio fischeri.

Where a SMILES comes first, the peptide text is derived from it. [ ]: non-standard residue; d: D form. Gly(Nα-4-Cl-benzyl) = O=C(O)CNCc1ccc(Cl)cc1; Gly(N-(CH2)3OMe) = COCCCNCC(=O)O; N(iPr)Gly = CC(C)NCC(=O)O

Usually IC50 stands for the concentration needed to halve the response being measured. The low end stands for greater potency, the high end for weaker potency. The compound `COCCCN(CC(=O)NCC(=O)O)C(=O)CNC(=O)CN(C(=O)CNC(=O)CN(Cc1ccc(Cl)cc1)C(=O)CN)C(C)C` (H-G[Gly(Nα-4-Cl-benzyl)]G[N(iPr)Gly]G[Gly(N-(CH2)3OMe)]G-OH) came in with an IC50 of around 10 µM.
